# Test results published in patent US4568687A, “N-[2-4-(1H-Imidazol-1-yl)alkyl]-arylamides and pharmaceutical compositions” (American Cyanamid Company, priority 1984, dated 1986).
# Where a name gives a salt, the structure may show the parent alone.
# Target: T1, thromboxane synthetase (Rattus norvegicus, UniProt P49430)
# T1 construct: The platelets were isolated by centrifuging the PRP for 10 minutes; endogenous in cells; host or cells: washed platelets from arterial blood of Okamoto-Aoki spontaneously hypertensive rats (rats from Taconic Farms)
# T1 sequence (P49430 1-533): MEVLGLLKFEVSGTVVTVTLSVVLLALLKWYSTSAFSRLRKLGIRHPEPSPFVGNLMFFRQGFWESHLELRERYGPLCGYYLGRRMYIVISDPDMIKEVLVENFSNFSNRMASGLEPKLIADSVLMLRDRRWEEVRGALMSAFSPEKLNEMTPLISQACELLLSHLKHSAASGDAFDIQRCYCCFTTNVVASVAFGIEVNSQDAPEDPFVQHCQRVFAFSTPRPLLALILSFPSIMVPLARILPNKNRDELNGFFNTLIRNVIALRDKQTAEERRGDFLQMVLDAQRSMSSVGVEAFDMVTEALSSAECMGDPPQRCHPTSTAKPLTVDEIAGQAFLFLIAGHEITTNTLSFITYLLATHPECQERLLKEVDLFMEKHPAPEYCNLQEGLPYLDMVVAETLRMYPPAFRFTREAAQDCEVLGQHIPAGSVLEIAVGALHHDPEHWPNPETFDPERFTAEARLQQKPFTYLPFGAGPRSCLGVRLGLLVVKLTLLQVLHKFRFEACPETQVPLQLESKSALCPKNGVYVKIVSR
# Experiment: Inhibition of thromboxane (TXB2) formation in washed rat platelets, TXB2 by direct radioimmunoassay
# Type: cell-based, Okamoto-Aoki spontaneously hypertensive rats (SHR)
# Details: 10 min; Dose 10^-4 (unit inferred); SHR platelet suspension, 10 minutes at 37° C.
# Procedure: Under urethan anesthesia, […] of arterial blood was collected in one ml. of 3.2% sodium citrate in a polystyrene tube from Okamoto-Aoki spontaneously hypertensive rats (SHR) (Taconic Farms, Germantown, NY) between 19 and 24 weeks in age. The blood was diluted with 3 ml. cold saline and centrifuged at room temperature for 15 minutes at 460×g. The platelet rich plasma (PRP) was separated. The platelets were isolated by centrifuging the PRP for 10 minutes at 1060×g and were washed in 4 ml. cold oxygenated Krebs phosphate buffer, pH 7.4. The chilled patelets recovered from centrifuging at 800×g for 10 minutes were resuspended in oxygenated Krebs phosphate buffer and diluted to contain 4.5-6.0×10^4 platelets/μl.
# The inhibition of thromboxane (TX) formation was studied by determining the […] of thromboxane B2 (TXB2), the stable hydrolysis product of TXA2. Assay samples, prepared on ice, contained 200 μl platelet suspension, 50 μl saline, and 50 μl vehicle or drug under study (OKY-1581, UK-37248-01, 1-benzylimidazole, or indomethacin). The samples were incubated for 10 minutes at 37° C. in a metabolic shaker. The reaction was terminated by immersing the tubes in an ice bath and adding 50 μl of 0.5M citric acid. The samples were centrifuged for 10 minutes in a refrigerated centrifuge and the supernatants thus obtained were decanted and stored at -20° C. The TXB2 content for each sample was determined by a direct radioimmunoassay (RIA) utilizing a TXB2 specific RIA kit purchased from New England Nuclear, Boston, MA and expressed as pg TXB2 formed minute^-1 sample^-1, from which the percent inhibition of TXB2 formation was calculated.
row,inhibition at 100 µM [%],SMILES
1,100,"O=C(COc1cccc(Cl)c1Cl)NCCCn1ccnc1 [2-(2,3-dichlorophenoxy)-N--[3-(1H--imidazol-1-yl)propyl]acetamide, fumarate]"
2,84.6,O=C(COc1ccc(Cl)cc1)NCCCn1ccnc1 [2-(4-chlorophenoxy)-N--[3-(1H--imidazol-1-yl)propyl]acetamide]
3,92,"O=C1c2ccccc2C(=O)N1CCCCCn1ccnc1 [2-[5-(1H--imidazol-1-yl)pentyl]-1H--isoindole-1,3(2H)--dione]"
4,99.7,O=C(NCCCn1ccnc1)c1ccccc1Cl [2-chloro-N--[3-(1H--imidazol-1-yl)propyl]benzamide]
5,86,CCNc1ccccc1C(=O)NCCCn1ccnc1 [2-ethylamino-N--[3-(1H--imidazol-1-yl)propyl]benzamide]
6,83.9,O=C(NCCCn1ccnc1)c1ccccc1F [2-fluoro-N--[3-(1H--imidazol-l-yl)propyl]benzamide]
7,100,"O=C(NCCCCn1ccnc1)c1ccc(Cl)c(Cl)c1 [3,4-Dichloro-N-[4-(1H-imidazol-1-yl)butyl]benzamide]"
8,58.5,"O=C(NCCn1ccnc1)c1ccc(Cl)c(Cl)c1 [3,4-dichloro-N--[2-(1H--imidazol-1-yl)ethyl]benzamide]"
9,92.7,"O=C(NCCCn1ccnc1)c1ccc(Cl)c(Cl)c1 [3,4-dichloro-N--[3-(1H--imidazol-1-yl)propyl]benzamide]"
10,93,Cc1cn(CCCNC(=O)c2cccc(Br)c2)cn1 [3-bromo-N--[3-(4-methyl-1H--imidazol-1-yl)propyl]benzamide]
11,93,CC(CCNC(=O)c1cccc(Cl)c1)n1ccnc1 (centres unmarked) [3-chloro-N--[3-(1H--imidazol-1-yl)butyl]benzamide]
12,95.8,O=C(NCCCn1ccnc1)c1cccc(F)c1 [3-fluoro-N--[3-(1H--imidazol-1-yl)propyl]benzamide]
13,84,O=C(NCCCn1ccnc1)c1cccc(C(F)(F)F)c1 [3-trifluoromethyl-N--[3-(1H--imidazol-1-yl)propyl]benzamide]
14,98.7,CC(=O)Nc1ccc(C(=O)NCCCn2ccnc2)cc1 [4-(acetylamino)-N--[3-(1H--imidazol-1-yl)propyl]benzamide]
15,66,O=C(NCCCn1cnc(-c2ccccc2)c1)c1ccc(Br)cc1 [4-Bromo-N-[3-(4-phenyl-1H-imidazol-1-yl)propyl]benzamide]
16,89.5,CC(=O)c1ccc(C(=O)NCCCn2ccnc2)cc1 [4-acetyl-N--[3-(1H--imidazol-1-yl)propyl]benzamide]
17,103,O=C(NCCCn1ccnc1)c1ccc(C(=O)c2ccccc2)cc1 [4-benzoyl-N--[3-(1H--imidazol-1-yl)propyl]benzamide]
18,100,O=C(NC(CCn1ccnc1)c1ccccc1)c1ccc(Br)cc1 (centres unmarked) [4-bromo-N--[3-(1H--imidazol-1-yl)-1-phenylpropyl]benzamide]
19,91,CC(CCNC(=O)c1ccc(Br)cc1)n1ccnc1 (centres unmarked) [4-bromo-N--[3-(1H--imidazol-1-yl)butyl]benzamide]
20,100,O=C(NC(CCn1ccnc1)c1ccccc1)c1ccc(Cl)cc1 (centres unmarked) [4-chloro-N--[3-(1H--imidazol-1-yl)-1-phenylpropyl]benzamide]
21,100,CC(CNC(=O)c1ccc(Cl)cc1)Cn1ccnc1 (centres unmarked) [4-chloro-N--[3-(1H--imidazol-1-yl)-2-methylpropyl]benzamide fumarate]

row,inhibition at 100 µM [%],SMILES
1,96,CC(CCNC(=O)c1ccc(Cl)cc1)n1ccnc1 (centres unmarked) [4-chloro-N--[3-(1H--imidazol-1-yl)butyl]benzamide]
2,90.7,N#Cc1ccc(C(=O)NCCCn2ccnc2)cc1 [4-cyano-N--[3-(1H--imidazol-1-yl)propyl]benzamide]
3,87.1,O=C(NCCCn1ccnc1)c1ccc(F)cc1 [4-fluoro-N--[3-(1H--imidazol-1-yl)propyl]benzamide]
4,53.1,"O=C(Cc1ccc(F)cc1)NCCCn1ccnc1 [4-fluoro-N--[3-(1H--imidazol-1-yl)propyl]benzeneacetamide, fumarate]"
5,99,Cc1cn(CCCNC(=O)c2ccc(I)cc2)cn1 [4-iodo-N--[3-(4-methyl-1H--imidazol-1-yl)propyl]benzamide]
6,76,Cc1ccc(CC(=O)NCCCn2cnc(C)c2)cc1 [4-methyl-N--[3-(4-methyl-1H--imidazol-1-yl)propyl]phenylacetamide]
7,57,CNc1ccccc1C(=O)NCCCn1ccnc1 [N--[3-(1H--imidazol-1-yl)propyl]-2-methylaminobenzamide]
8,101,"COc1cc(C(=O)NCCCn2ccnc2)cc(OC)c1OC [N--[3-(1H--imidazol-1-yl)propyl]-3,4,5-trimethoxybenzamide]"
9,93,CN(C)c1ccc(C(=O)NCCCn2ccnc2)cc1 [N--[3-(1H--imidazol-1-yl)propyl]-4-(dimethylamino)benzamide]
10,80.1,CS(=O)(=O)c1ccc(C(=O)NCCCn2ccnc2)cc1 [N--[3-(1H--imidazol-1-yl)propyl]-4-(methylsulfonyl)benzamide]
11,102,CSc1ccc(C(=O)NCCCn2ccnc2)cc1 [N--[3-(1H--imidazol-1-yl)propyl]-4-(methylthio)-benzamide]
12,96.7,O=C(NCCCn1ccnc1)c1ccc(I)cc1 [N--[3-(1H--imidazol-1-yl)propyl]-4-iodobenzamide]
13,88.9,COc1ccc(C(=O)NCCCn2ccnc2)cc1 [N--[3-(1H--imidazol-1-yl)propyl]-4-methoxybenzamide]
14,83.2,Cc1ccc(C(=O)NCCCn2ccnc2)cc1 [N--[3-(1H--imidazol-1-yl)propyl]-4-methylbenzamide]
15,100,O=C(NCCCn1ccnc1)C1c2ccccc2-c2ccccc21 [N--[3-(1H--imidazol-1-yl)propyl]-9H--fluorene-9-carboxamide]
16,106,"O=C(NCCCn1ccnc1)c1ccc(-c2ccccc2)cc1 [N--[3-(1H--imidazol-1-yl)propyl][1,1'-biphenyl]-4-carboxamide]"
17,95,O=C(NCCCCn1ccnc1)c1cccc2ccccc12 [N--[4-(1H--imidazol-1-yl)butyl]-naphthalene-1-carboxamide]
18,86.2,O=C(COc1ccccc1)NCCCn1ccnc1 [N-[3-(1H-Imidazol-1-yl)propyl]-2-phenoxyacetamide]
19,79.7,"O=C(NCCCn1ccnc1)C(=O)c1ccccc1 [N-[3-(1H-Imidazol-1-yl)propyl]-α-oxo-benzeneacetamide, fumarate]"
20,84,O=C(NCCCn1ccnc1)C(c1ccccc1)c1ccccc1 [N-[3-(1H-imidazol-1-yl)propyl]diphenylacetamide]
